Test results from the NIST ThermoML archive (doi:10.1016/j.fluid.2018.09.026).
Where “and” joins values, the source holds several entries; their conditions need not be identical. Equal values may be shown once.

Details: Liquid; for mass density: Vibrating tube method; for viscosity: 362.81 K, Vibrating wire viscometry

OCCOCCO [diethylene glycol]
Details | mass density
343.15 K, 3060 kPa | 1081.2 kg/m3
343.15 K, 5040 kPa | 1082.3 kg/m3
343.15 K, 6970 kPa | 1083.3 kg/m3
343.15 K, 9950 kPa | 1084.8 kg/m3
343.15 K, 14870 kPa | 1087.3 kg/m3
343.15 K, 19740 kPa | 1089.6 kg/m3
343.15 K, 24710 kPa | 1092.1 kg/m3
343.15 K, 29560 kPa | 1094.4 kg/m3
343.15 K, 34490 kPa | 1096.6 kg/m3
343.15 K, 39350 kPa | 1098.8 kg/m3
343.15 K, 44290 kPa | 1101 kg/m3
343.15 K, 49180 kPa | 1103.1 kg/m3
343.15 K, 54070 kPa | 1105.2 kg/m3
343.15 K, 58980 kPa | 1107.3 kg/m3
343.15 K, 63910 kPa | 1109.3 kg/m3
343.15 K, 68720 kPa | 1111.2 kg/m3
353.15 K, 100 kPa | 1072.2 kg/m3
353.15 K, 560 kPa | 1072.5 kg/m3
353.15 K, 1090 kPa | 1072.8 kg/m3
353.15 K, 1550 kPa | 1073 kg/m3
353.15 K, 2080 kPa | 1073.3 kg/m3
353.15 K, 3040 kPa | 1073.8 kg/m3
353.15 K, 5060 kPa | 1074.9 kg/m3
353.15 K, 7020 kPa | 1076 kg/m3
353.15 K, 9970 kPa | 1077.5 kg/m3
353.15 K, 14830 kPa | 1080.1 kg/m3
353.15 K, 19740 kPa | 1082.6 kg/m3
353.15 K, 24680 kPa | 1085.1 kg/m3
353.15 K, 29560 kPa | 1087.5 kg/m3
353.15 K, 34550 kPa | 1089.8 kg/m3
353.15 K, 39420 kPa | 1092.1 kg/m3
353.15 K, 44280 kPa | 1094.3 kg/m3
353.15 K, 49230 kPa | 1096.5 kg/m3
353.15 K, 54110 kPa | 1098.7 kg/m3
353.15 K, 59020 kPa | 1100.8 kg/m3
353.15 K, 64010 kPa | 1102.9 kg/m3
353.15 K, 68770 kPa | 1104.8 kg/m3
363.08 K, 100 kPa | 1064.5 kg/m3 and 1064.4 kg/m3
363.08 K, 620 kPa | 1064.7 kg/m3
363.08 K, 1110 kPa | 1065 kg/m3
363.08 K, 1570 kPa | 1065.2 kg/m3
363.08 K, 2100 kPa | 1065.5 kg/m3
363.08 K, 3020 kPa | 1066 kg/m3
363.08 K, 5070 kPa | 1067.2 kg/m3
363.08 K, 7000 kPa | 1068.3 kg/m3
363.08 K, 9970 kPa | 1069.9 kg/m3
363.08 K, 14840 kPa | 1072.6 kg/m3
363.08 K, 19750 kPa | 1075.1 kg/m3
363.08 K, 24660 kPa | 1077.7 kg/m3
363.08 K, 29610 kPa | 1080.2 kg/m3
363.08 K, 34480 kPa | 1082.6 kg/m3
363.08 K, 39400 kPa | 1084.9 kg/m3
363.08 K, 44290 kPa | 1087.2 kg/m3
363.08 K, 49160 kPa | 1089.5 kg/m3
363.08 K, 54110 kPa | 1091.7 kg/m3
363.08 K, 58990 kPa | 1093.9 kg/m3
363.08 K, 63880 kPa | 1096 kg/m3
363.08 K, 68760 kPa | 1098 kg/m3

Details | viscosity
230 kPa | 3.458 mPa·s [middle of 4 runs]
240 kPa | 3.444 mPa·s
1070 kPa | 3.462 mPa·s and 3.469 mPa·s
2190 kPa | 3.473 mPa·s and 3.514 mPa·s and 3.458 mPa·s
5080 kPa | 3.546 mPa·s [middle of 5 runs]
9970 kPa | 3.652 mPa·s [middle of 4 runs]
20040 kPa | 3.834 mPa·s
20050 kPa | 3.862 mPa·s and 3.82 mPa·s and 3.837 mPa·s
30200 kPa | 4.039 mPa·s
30210 kPa | 4.007 mPa·s
40240 kPa | 4.264 mPa·s and 4.237 mPa·s
40250 kPa | 4.205 mPa·s and 4.242 mPa·s
50100 kPa | 4.435 mPa·s
50110 kPa | 4.47 mPa·s and 4.453 mPa·s
69940 kPa | 4.921 mPa·s
69950 kPa | 4.913 mPa·s
70000 kPa | 4.894 mPa·s
70020 kPa | 4.924 mPa·s
